The test system of test [1] is SBC3 cells. Kind of test: CCK-8 cell viability/cytotoxicity assay, 72 h. The following applies: SBC3, CCK-8 72 h, fixed concentrations of Teri and Carbo; read-out: IC50, single treatment and combination treatment. It counts as cell-based, human. As for the experimental part:
The expression levels of DRP1 and DHODH in SCLC lines were compared with non-malignant BEAS 2B cells. […] Previous studies have shown that Leflu and its active metabolite Teri regulate mitochondrial morphology (9,10,26). […] In vitro cytotoxicity effect of Teri and Leflu was tested in a panel of SCLC cell lines. Ten SCLC cell lines were treated with increasing concentrations of each drug for 72 h.
Isobologram and CI50 values were calculated using the Chou-Talalay method and IC50 to find synergism (FIG. 3B).

The subject of a further test is SBC3 xenograft. Put plainly: SBC3 mouse xenograft, Carbo/Leflu study. It is filed as in vivo. As for the experimental part: (§1) Athymic nude nu/nu mice were obtained from Charles River, Wilmington, MA, and were acclimated for a week before beginning the experiment. All animal experiments were carried out in accordance with a protocol approved by the Institutional Animal Care and Use Committee COH (IACUC #16004). For treatments, mice were divided into 4 groups with five mice per group and subcutaneously injected into one flank with 2×10^6 SBC3 or SBC5 cells suspensions in 100 μl of PBS. Treatment started on the 14th day when tumors became palpable. Two in vivo studies were done in this project. SBC3 and SBC 5 xenograft with i) vehicle control, ii) […] 50 mg/kg, iii) Leflu 7.5 mg/kg, and iv) […]/Leflu. SBC3 with i) vehicle control, ii) Lur 0.5 mg/kg, iii) Leflu 3.8 mg/kg, and iv) Lur/Leflu. Treatments were given to mice via i.p. twice a week for 6 weeks. Animals were examined daily for signs of tumor growth. Tumors were measured in two dimensions using calipers and body weights were recorded. Animals were photographed on days 1, 5, 10, 15, 20, 25, 30, 35, and 40 after treatment. Tumors were removed on day 40 and photographed. At the end of the study, the mice were euthanized by CO2 asphyxiation followed by cervical dislocation. The tumor weights were compared between groups using an unpaired Student's t-test. A portion of the tumor was fixed in 10% buffered formaldehyde solution and paraffin-embedded for immuno-staining. FFPE tumor sections were stained with pDRP Ser^616 antibody. Tumor sections were deparaffinized and rehydrated, followed by heat-mediated antigen retrieval (pH 6, Dako). After permeabilization and blocking, tumor sections were stained with pDRP1 Ser^616 antibody overnight, washed and incubated with Alexa 488 secondary antibody for one hour, mounted and observed on an LSM 880 with a 10×/0.45 NA objective (Carl Zeiss). Immunofluorescent confocal images were acquired for each treatment (magnification:100×). Mean immunofluorescence intensities were calculated with ZEN 2.3 Lite software.

The next test has as its system SBC5 xenograft. Put plainly: SBC5 mouse xenograft, Carbo/Leflu study. It is filed as in vivo. To be noted: Carbo 50 mg/kg, Leflu 7.5 mg/kg, i.p. twice a week. As for the experimental part: as §1, with “A portion of the tumor was fixed in 10% buffered formaldehyde solution and paraffin-embedded for immuno-staining. FFPE tumor sections were stained with pDRP Ser^616 antibody. Tumor sections were deparaffinized and rehydrated, followed by heat-mediated antigen retrieval (pH 6, Dako). After permeabilization and blocking, tumor sections were stained with pDRP1 Ser^616 antibody overnight, washed and incubated with Alexa 488 secondary antibody for one hour, mounted and observed on an LSM 880 with a 10×/0.45 NA objective (Carl Zeiss). Immunofluorescent confocal images were acquired for each treatment (magnification:100×).” left out

Test [2] deals with SBC3 cells. Kind of test: LC-MS of nucleotides, nucleosides and nucleobases in cell pellets. It is filed as cell-based, human. Also noted: unit not given here. As for the experimental part: These studies were performed by Creative Proteomics in their facility in Shirley, NY. Each sample was placed into 250 μL of 80% methanol. Tissue samples were weighed in 2-mL Eppendorf tubes, and 80% methanol was added at 10 μL per mg of raw tissue. The tissue and cell samples were then homogenized on a MM 400 mill mixer with the aid of two 4-mm metal beads at a shaking frequency of 30 Hz for 2 min and the homogenization step was repeated twice. The samples were placed at −20° C. for 1 h and then centrifuged at 21,000×g for 10 min. The clear supernatants were collected for LC-MS quantitation. Protein content was measured from protein pellets by Bradford protein assays and used to normalize metabolite concentrations from cell pellets. A stock solution contained standard substances of all the targeted nucleotides, nucleosides, and nucleobases were prepared at 200 nmol/mL for each in an internal standard solution of ^13C- and/or ^15N-labeling AMP, ATP, GMP, GTP, UMP, UTP, adenine and adenosine. This solution was serially diluted with the same solution to prepare 10-point calibration solutions in a concentration range of 0.0001 to 50 μM. 10 μL of the supernatant of each sample was mixed with 90 μL of the internal standard solution. 10 μL aliquots of the sample solutions and the standard solutions were injected into a C18 LC column (2.1*150 mm, 1.9 μm) to run UPLC-MRM/MS on a Waters Acquity UPLC system coupled to a Sciex QTRAP 6500 Plus mass spectrometer operated in the negative-ion mode for detection of nucleotides. The mobile phase was a triethylamine buffer (A) and acetonitrile/methanol (1:1) (B) for binary gradient elution (5% to 60% B in 25 min), at 0.25 mL/min and 55° C. For quantitation of nucleosides and nucleobases, 10-μL aliquots of the sample solutions and the standard solutions were injected onto a polar reversed-phase C18 column (2.1*100 mm, 1.6 μm) to run UPLC-MRM/MS on a Waters Acquity UPLC system coupled to a Sciex QTRAP 6500 Plus mass spectrometer operated in the positive-ion mode. The mobile phase was 0.1% formic acid-ammonium formate buffer (A) and methanol (B) for binary gradient elution (0% to 40% B in 15 min), at 0.25 mL/min and 30° C. Concentrations of the detected nucleotides, nucleosides or nucleobases in the UPLC-MRM/MS runs were calculated with internal-standard calibration by interpolating the constructed linear-regression curves of individual compounds, with the analyte-to-internal standard peak area ratios measured from the sample solutions.
The effect of treatment on the concentration of purines and pyrimidines for both cell lines and xenograft were modelled as concentration=Treatment1+Treatment2+Treatment1*Treatment2. For cell lines, Treatment 1-2 were […] and Teri, while for the xenografts—Lur and Leflu respectively. The significance of the effects was ascertained by p-values associated with the coefficients of the model (20). The p-values were FDR corrected to account for repeated testing. The coefficient for the interaction term (Treatment1*Treatment2) and its associated p-value correspond to the synergistic effect of the two treatments. Coefficients and p-values for the rest of the terms indicate significance of each treatment alone. Statistical analysis was conducted in R.

The subject of another test is SCLC. To be noted: relapsed / second-line SCLC patients; cited from earlier work.
Test [3] concerns SBC3 cells. Put plainly: Imaris quantification of mitochondrial and nuclear areas/morphology. It is filed as cell-based, human. To be noted: SBC3. As for the experimental part:
(§2) Imaris 9.9.0 (Bitplane, AG), with Surfaces and Cells modules, was used to generate mitochondria morphology data from 2D images and 2D Z-stack subsets. Surfaces were used to evaluate individual mitochondria from cell monolayers and spheroids. Detection parameters were optimized for visible mitochondria and nuclei in each group with varying signal intensities. Roundness ratios were calculated from Surface generated Bounding Box 00 Length measurements. Object lengths less than 0.1 μm were excluded, and lengths greater than 1.26 μm were separately analyzed as clusters. Thresholds were uniformly applied to roundness ratios to categorize mitochondria morphology as elongated (<0.599), intermediate (≥0.600-0.649), or round/fragmentated (≥0.650). The percentage of cells from total number is based on a ratio. A perfectly round object has a ratio of 1.0. The Cells module was used to detect and quantify mitochondria and nucleus area from cell monolayers. Identical parameters were applied to all groups with cell boundary detection based on mitochondria signals. Imaris includes nuclei in cytoplasm measurements, so mitochondrial area is calculated by subtracting nucleus area from cell cytoplasm area. Abnormal nuclei were excluded (<100 μm^2, >750 μm^2).
MitoTracker Red and Hoechst 33342 were used to validate Teri and Leflu effects on intact mitochondrial morphology in SBC3 and SBC5 cells. M1 and MDIVI1 compounds were used as positive controls because they are promoters of mitochondrial fusion. Mitochondrial and nuclear areas were quantified by analyzing object surface area and intensity in Imaris 9.9.0.

Another test concerns SBC5 cells. The description is as above. It counts as cell-based, human. The following applies: SBC5, 10 μM. As for the experimental part: as §2
Next, we performed the same analysis with SBC5 cells. […] Mitochondrial elongation in SBC3 cells treated with Teri and Leflu is visible and correlates with Imaris Surface results. […] Although mitochondrial areas of SBC5 cells were not affected by Teri and Leflu treatments, elongations of individual mitochondria were detected with each treatment (FIG. 2I). […] Therefore, it is important to investigate the effects of Teri and Leflu on mitochondrial morphology and cell survival in combination with chemotherapeutic drugs.

As a reminder, the IC50 is the midpoint of a concentration-inhibition curve. Turning to carboplatin, the IC50 in the test on SBC3 cells [1] worked out at 4.12 µM. The “pDRP1 Ser616 immunofluorescence in tumor sections” value with SBC3 xenograft (SBC3 xenograft FFPE tumors) was “significant decrease”. Besides, in the test on SBC3 xenograft (SBC3 xenograft, day 40, vs control), the “reduction in tumor size/weight” value is ~58%. For the same compound, the “average final tumor weight at end of study (day 40)” value in the test on SBC3 xenograft (SBC3 xenograft, Carbo 50 mg/kg, Leflu 7.5 mg/kg, i.p. twice a week) amounted to 0.75 ± 0.10 g. The “final tumor weight (day 40)” value with SBC5 xenograft turned out to be 0.64 ± 0.10 g. Also, in the test with SBC3 cells [2], the ATP concentration stood at 27.92±0.55, the UTP concentration is 9.29±0.4, the XMP concentration turned out to be 0.35±0.18 and the dATP concentration came out at 0.17±0.002. Further, in the test on SBC3 cells [2], the dCTP concentration is 0.06±0.004, the dm5UTP concentration turned out to be 0.44±0.001 and the xanthosine concentration turned out to be 0.094±0.045.
In the case of `CC[C@@]1(O)C(=O)OCc2c1cc1n(c2=O)Cc2cc3c(CN(C)C)c(O)ccc3nc2-1` [topotecan, Topotecan], in the test with SCLC, the ORR was 24% and the “median PFS” value is listed as 3.4 months.
On to `CC(=NNc1c(Cl)cc(Cl)cc1Cl)c1cc(Cl)ccc1O` [M1], for which, in the test on SBC3 cells [3], the “Mitochondrial elongation (Airyscan imaging)” value is listed as “moderately affected” and the “effect on mitochondrial or nuclear areas” value was “did not affect”.
As to `COc1cc(-n2c(=S)[nH]c3ccccc3c2=O)c(Cl)cc1Cl` [MDIVI1], in the test on SBC3 cells [3], the “Mitochondrial elongation (Airyscan imaging)” value was “moderately affected” and the “effect on mitochondrial or nuclear areas” value is “did not affect”. Besides, in the test on SBC5 cells, the Mitochondrial area came out at 419.9±13.26 μm^2.

Source of the values: US20250041313A1, “COMBINATION THERAPY FOR TREATMENT OF CANCER” (CITY OF HOPE, priority 2023, published 2025).
